*1 amine or outer side, *2 acyl side, *3 side chain or, on linkers, in order; H or OH if unused. Where a SMILES comes first, the peptide text is derived from it. Bridges are numbered along the chain shown (N, C = ends). [ ]: non-standard residue; d: D form. Adda = CO[C@@H](Cc1ccccc1)[C@@H](C)/C=C(C)/C=C/[C@H](N[*:1])[C@H](C)C(=O)[*:2]; dAsp(3S-Me) = C[C@H](C(=O)[*:3])[C@@H](N[*:1])C(=O)[*:2]; d(γGlu) = O=C(O)[C@@H](CCC(=O)[*:2])N[*:1]; NMeDha = C=C(NC)C(=O)O
Experiments:
P-gp = target: T1, P-gp (Homo sapiens, UniProt P08183); assay: Transport with/without P-gp inhibitor verapamil in EpiIntestinal™; assay type: in vitro ADME
T1 construct: EpiIntestinal™ tissues express all the influx and efflux transporters that are considered relevant; host or cells: EpiIntestinal™ 3D reconstructed human small-intestinal epithelium (normal human primary cells, single donor)
T1 sequence (P08183 whole entry): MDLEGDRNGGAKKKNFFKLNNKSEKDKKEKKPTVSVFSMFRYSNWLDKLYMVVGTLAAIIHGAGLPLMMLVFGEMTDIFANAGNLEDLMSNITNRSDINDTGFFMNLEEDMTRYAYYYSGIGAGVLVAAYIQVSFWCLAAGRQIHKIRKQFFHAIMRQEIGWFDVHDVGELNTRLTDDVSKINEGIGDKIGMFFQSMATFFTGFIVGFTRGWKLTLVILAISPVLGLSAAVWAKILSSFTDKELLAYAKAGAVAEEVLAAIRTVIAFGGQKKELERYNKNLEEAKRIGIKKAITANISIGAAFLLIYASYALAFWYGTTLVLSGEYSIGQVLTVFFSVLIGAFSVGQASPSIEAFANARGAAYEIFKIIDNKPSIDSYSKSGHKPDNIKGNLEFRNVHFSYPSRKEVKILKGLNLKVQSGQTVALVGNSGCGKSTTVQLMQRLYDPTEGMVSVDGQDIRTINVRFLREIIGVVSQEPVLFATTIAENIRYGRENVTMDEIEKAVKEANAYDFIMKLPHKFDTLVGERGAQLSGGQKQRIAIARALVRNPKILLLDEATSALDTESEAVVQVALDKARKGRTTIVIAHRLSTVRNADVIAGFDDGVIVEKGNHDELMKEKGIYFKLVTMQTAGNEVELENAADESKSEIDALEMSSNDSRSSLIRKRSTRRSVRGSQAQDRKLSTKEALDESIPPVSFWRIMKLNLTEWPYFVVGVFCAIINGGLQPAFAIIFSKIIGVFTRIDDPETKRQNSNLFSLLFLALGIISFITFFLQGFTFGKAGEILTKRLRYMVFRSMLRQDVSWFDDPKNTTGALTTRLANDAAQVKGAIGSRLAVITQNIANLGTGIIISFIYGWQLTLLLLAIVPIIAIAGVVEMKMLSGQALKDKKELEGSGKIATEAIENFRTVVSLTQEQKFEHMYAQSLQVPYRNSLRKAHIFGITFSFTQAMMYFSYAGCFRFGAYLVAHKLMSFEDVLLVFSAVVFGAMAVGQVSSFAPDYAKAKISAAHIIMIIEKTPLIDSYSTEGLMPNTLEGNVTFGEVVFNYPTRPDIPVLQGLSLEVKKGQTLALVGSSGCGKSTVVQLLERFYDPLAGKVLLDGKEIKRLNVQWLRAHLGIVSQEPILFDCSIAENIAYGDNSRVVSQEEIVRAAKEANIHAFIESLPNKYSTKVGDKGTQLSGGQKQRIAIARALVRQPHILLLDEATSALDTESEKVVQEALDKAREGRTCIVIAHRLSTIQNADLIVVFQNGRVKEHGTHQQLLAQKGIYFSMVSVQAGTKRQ

EpiIntestinal™ tissues [1] = assay type: cell-based, human
MRP2 [2] = target: T2, MRP2 (Homo sapiens, UniProt Q92887); assay type: in vitro ADME
T2 construct: EpiIntestinal™ tissues express all the influx and efflux transporters that are considered relevant; host or cells: EpiIntestinal™ 3D reconstructed human small-intestinal epithelium (normal human primary cells, single donor)
T2 sequence (Q92887 whole entry): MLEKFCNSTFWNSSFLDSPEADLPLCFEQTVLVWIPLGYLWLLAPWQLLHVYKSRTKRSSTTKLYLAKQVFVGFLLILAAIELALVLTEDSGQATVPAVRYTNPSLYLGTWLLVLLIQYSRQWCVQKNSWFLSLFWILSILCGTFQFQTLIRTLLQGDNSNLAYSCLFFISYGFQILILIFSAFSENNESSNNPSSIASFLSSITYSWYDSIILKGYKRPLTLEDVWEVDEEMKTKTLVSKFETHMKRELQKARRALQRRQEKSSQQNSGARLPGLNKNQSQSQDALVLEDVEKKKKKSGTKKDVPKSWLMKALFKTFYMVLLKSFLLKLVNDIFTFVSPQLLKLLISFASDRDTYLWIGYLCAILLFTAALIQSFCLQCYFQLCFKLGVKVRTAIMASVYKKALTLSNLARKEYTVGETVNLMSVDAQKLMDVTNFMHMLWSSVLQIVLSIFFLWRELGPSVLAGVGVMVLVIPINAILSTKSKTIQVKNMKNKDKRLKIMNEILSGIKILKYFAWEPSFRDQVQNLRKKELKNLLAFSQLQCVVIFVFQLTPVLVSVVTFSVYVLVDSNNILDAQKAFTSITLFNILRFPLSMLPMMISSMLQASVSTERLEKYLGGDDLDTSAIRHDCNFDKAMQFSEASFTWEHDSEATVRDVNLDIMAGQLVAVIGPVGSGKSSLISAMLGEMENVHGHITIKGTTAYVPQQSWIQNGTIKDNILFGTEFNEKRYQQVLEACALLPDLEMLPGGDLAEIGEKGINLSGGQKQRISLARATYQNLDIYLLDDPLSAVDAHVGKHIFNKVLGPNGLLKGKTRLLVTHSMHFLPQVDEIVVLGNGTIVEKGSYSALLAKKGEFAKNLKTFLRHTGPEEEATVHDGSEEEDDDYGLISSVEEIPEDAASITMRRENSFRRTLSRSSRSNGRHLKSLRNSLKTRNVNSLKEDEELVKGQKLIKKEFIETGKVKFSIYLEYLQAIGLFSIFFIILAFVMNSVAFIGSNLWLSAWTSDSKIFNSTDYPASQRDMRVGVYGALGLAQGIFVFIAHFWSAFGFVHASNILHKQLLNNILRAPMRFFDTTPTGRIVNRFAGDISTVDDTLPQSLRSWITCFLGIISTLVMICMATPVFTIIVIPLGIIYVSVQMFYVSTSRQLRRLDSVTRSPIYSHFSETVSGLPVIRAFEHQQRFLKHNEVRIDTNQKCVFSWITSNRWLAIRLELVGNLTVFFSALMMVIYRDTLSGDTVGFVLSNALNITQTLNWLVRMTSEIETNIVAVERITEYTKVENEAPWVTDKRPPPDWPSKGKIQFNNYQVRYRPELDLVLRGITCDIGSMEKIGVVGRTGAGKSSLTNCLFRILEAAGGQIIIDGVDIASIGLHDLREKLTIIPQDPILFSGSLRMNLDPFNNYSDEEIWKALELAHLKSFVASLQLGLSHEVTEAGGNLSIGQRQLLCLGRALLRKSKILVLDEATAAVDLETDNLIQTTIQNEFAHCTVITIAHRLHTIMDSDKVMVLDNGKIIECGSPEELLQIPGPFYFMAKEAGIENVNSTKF

[3] = test system: EpiIntestinal™ 3D human reconstructed intestinal epithelium; assay type: in vitro ADME
Caco-2 cell monolayers = details: cited from earlier work
EpiIntestinal™ tissues [4] = assay type: in vitro ADME, human
BCRP = assay: in vitro; details: human, not told
MRP2 [5] = target: T2, MRP2; details: cited from earlier work
OATP 2B1 = OATP 2B1 (Homo sapiens, UniProt O94956); assay type: in vitro ADME
Sequence of OATP 2B1 (O94956 whole entry): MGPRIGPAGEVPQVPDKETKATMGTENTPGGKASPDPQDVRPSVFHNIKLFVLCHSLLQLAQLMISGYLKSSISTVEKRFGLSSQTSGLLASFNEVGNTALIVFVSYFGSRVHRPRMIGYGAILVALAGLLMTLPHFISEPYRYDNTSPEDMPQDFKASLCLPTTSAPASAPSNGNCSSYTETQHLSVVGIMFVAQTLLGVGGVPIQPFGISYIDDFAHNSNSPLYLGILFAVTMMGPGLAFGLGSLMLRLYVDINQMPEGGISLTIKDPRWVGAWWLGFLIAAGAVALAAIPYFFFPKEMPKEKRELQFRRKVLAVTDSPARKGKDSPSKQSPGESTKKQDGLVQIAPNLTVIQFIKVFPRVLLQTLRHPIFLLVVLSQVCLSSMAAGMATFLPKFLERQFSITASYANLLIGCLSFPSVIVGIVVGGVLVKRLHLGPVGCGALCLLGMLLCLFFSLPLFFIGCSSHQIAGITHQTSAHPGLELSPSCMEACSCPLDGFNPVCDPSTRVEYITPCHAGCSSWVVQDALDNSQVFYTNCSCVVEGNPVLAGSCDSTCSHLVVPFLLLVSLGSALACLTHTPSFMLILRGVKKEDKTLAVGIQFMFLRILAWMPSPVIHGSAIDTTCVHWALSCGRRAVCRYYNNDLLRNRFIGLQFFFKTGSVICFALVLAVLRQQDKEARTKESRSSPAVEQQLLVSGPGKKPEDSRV

Molecule | effect of co-administration of verapamil (P-gp inhibitor) on MC transport (P-gp) | toxicity, measured as barrier integrity with LY (EpiIntestinal™ tissues [1]) | effect of cyclosporin on MC transport (MRP2 [2]) | absorption (parent compound detected in the BL compartment), % of the administered dose [3] | amount recovered in the BL compartment at 4 h, percentage of the applied dose [3] [%] | dependence of Papp on the donor concentration [3] | toxin reaching the basolateral compartment (Caco-2 cell monolayers) | Efflux ratio (ER), Papp BL-AP / Papp AP-BL (EpiIntestinal™ tissues [4]) | efflux ratio (BCRP) | transport (efflux) by MRP2 (MRP2 [5]) | amount recovered in the cellular pellet, % of the administered dose [3] | effect of pravastatin (OATP 2B1 inhibitor) on MC uptake (OATP 2B1) | permeability coefficient Papp (AP-BL), time course [3] | time at which toxin was detectable in the receptor fluid [3] [min]
C=C1C(=O)N[C@H](C)C(=O)N[C@@H](CC(C)C)C(=O)N[C@@H](C(=O)O)[C@H](C)C(=O)N[C@@H](CCCNC(=N)N)C(=O)N[C@@H](/C=C/C(C)=C/[C@H](C)[C@H](Cc2ccccc2)OC)[C@H](C)C(=O)N[C@@H](C(=O)O)CCC(=O)N1C [MC-LR, Microcystin-LR] (R[Adda][d(γGlu)][NMeDha][dA]L[dAsp(3S-Me)]-OH; lactam N-7) | not affected | no toxicity | significantly decreased the efflux | around 5% | 4.6 | independent on the donor concentrations | 0.3–1.35% | 3.65 |  |  |  |  |  | 
C[C@]12CC[C@H]3[C@@H](CCC4=CC(=O)CC[C@@]43C)[C@@H]1CC[C@@H]2O [testosterone, Testosterone] |  |  |  |  |  |  |  |  | 1.95 |  |  |  |  | 
Microcystin-LF [MC-LF] |  | no toxicity |  |  |  | dose dependent increase in permeability |  |  |  | transported more rapidly than MC-LR and–RR | less than 1% |  |  | 
Microcystin-LW [MC-LW] | not affected | no toxicity | not reaching the statistical significance |  |  | dose dependent increase in permeability |  | 2.65 |  |  | less than 1% | slightly decreased |  | 
Microcystin-RR [MC-RR] |  | no toxicity |  | around 5% | 3.6 | independent on the donor concentrations |  |  |  |  |  |  | 5.73 | 30
Microcystin-YR [MC-YR] |  | no toxicity |  | around 5% | 4.3 | independent on the donor concentrations |  |  |  |  |  |  |  | 

Reference: PMC9388863, “Congeners-Specific Intestinal Absorption Of Microcystins In An In Vitro 3D Human Intestinal Epithelium: The Role Of Influx/Efflux Transporters” (Frontiers in Toxicology, 2022)
